Tests used:
[1] = physchem; details: oil or lipid, thermodynamic from solid
[2] = Solubility of fatty acids in squalene; details: for solubility: oil or lipid, thermodynamic from solid
[3] = 4 °C, solubility in squalene, 4° C. (overnight), solution at the fatty acid's top concentration left at 4° C. overnight
[4] = 60 °C, solubility in squalene at 40 mg/mL, mixed with squalene at 60° C.
[5] = 60 °C, solubility in squalene at 5 mg/mL, mixed with squalene at 60° C.
[6] = 60 °C, solubility in squalene at 10 mg/mL, mixed with squalene at 60° C.
[7] = 60 °C, solubility in squalene at 20 mg/mL, mixed with squalene at 60° C.

SMILES: CCCCCC/C=C\CCCCCCCC(=O)O [Palmitoleic Acid (16:1), Palmitoleic Acid]
- solubility [1, 3]: > 40 mg/mL
- solubility [1, 4]: > 40 mg/mL

SMILES: CCCCCCCCCCCCC(=O)O [Tridecanoic Acid]
- solubility [1, 3]: < 40 mg/mL
- solubility [1, 4]: > 40 mg/mL

SMILES: CCCCCCCC/C=C\CCCCCCCCCCCC(=O)O [Erucic Acid (22:1), Erucic Acid]
- solubility ([1]; 4 °C): > 40 mg/mL
- solubility ([1]; 60 °C): > 40 mg/mL

SMILES: CCCCCCCC/C=C/CCCCCCCC(=O)O [Elaidic Acid (18:1)-trans, Elaidic Acid]
- solubility [1, 3]: < 40 mg/mL
- solubility [1, 4]: > 40 mg/mL

SMILES: CCCCCCCCCCCCCCCCCCCCCCCC(=O)O [Lignoceric Acid (24:0), Lignoceric Acid]
- solubility [1, 3]: < 40 mg/mL
- solubility [1, 5]: < 5 mg/mL
- solubility [1, 6]: < 10 mg/mL
- solubility [1, 7]: < 20 mg/mL
- solubility [1, 4]: < 40 mg/mL

SMILES: CC/C=C\C/C=C\C/C=C\C/C=C\C/C=C\C/C=C\CCC(=O)O [Docosahexaenoic Acid (22:6), Docosahexaenoic Acid]
- solubility [1, 3]: > 40 mg/mL
- solubility [1, 4]: > 40 mg/mL

SMILES: CCCCCCCCCCCCCCC(=O)O [Pentadecanoic Acid]
- solubility [1, 3]: < 40 mg/mL
- solubility [1, 4]: > 40 mg/mL

SMILES: CCCCCCCCCCCCCCCCCCCC(=O)O [Arachidic Acid (20:0), Arachidic Acid]
- solubility [1, 3]: < 40 mg/mL
- solubility [1, 5]: > 5 mg/mL
- solubility [1, 6]: < 10 mg/mL
- solubility [1, 7]: < 20 mg/mL
- solubility [1, 4]: < 40 mg/mL

SMILES: CCCCCCCCCCC/C=C\CCCCC(=O)O [Petroselinic Acid (18:1), Petroselinic Acid]
- solubility ([2]; 4 °C): > 40 mg/mL
- solubility ([2]; 60 °C): > 40 mg/mL

SMILES: CCCCCCCCCCCCCCCCCCC(=O)O [Nonadecanoic Acid]
- solubility [1, 3]: < 40 mg/mL
- solubility [1, 5]: < 5 mg/mL
- solubility [1, 6]: < 10 mg/mL
- solubility [1, 7]: < 20 mg/mL
- solubility [1, 4]: < 40 mg/mL

SMILES: CC/C=C\C/C=C\C/C=C\CCCCCCCC(=O)O [Linolenic Acid (18:3), Linolenic Acid]
- solubility [1, 3]: > 40 mg/mL
- solubility [1, 4]: > 40 mg/mL

SMILES: CCCCCCCC/C=C\CCCCCCCC(=O)O [Oleic Acid (18:1)-cis, Oleic Acid]
- solubility in squalene ([2]; 40 mg/ml): soluble in squalene
- solubility in squalene ([2]; 4° C. overnight): remained soluble in squalene
- solubility [1, 3]: > 40 mg/mL
- solubility [1, 4]: > 40 mg/mL

SMILES: CCCCCCCCCCCCCCCCCCCCC(=O)O [Heneicosanoic Acid]
- solubility [1, 3]: < 40 mg/mL
- solubility [1, 5]: < 5 mg/mL
- solubility [1, 6]: < 10 mg/mL
- solubility [1, 7]: < 20 mg/mL
- solubility [1, 4]: < 40 mg/mL

SMILES: CCCCCCCCCCCCCCCCCCCCCC(=O)O [Behenic Acid (22:0), Behenic Acid]
- solubility [1, 3]: < 40 mg/mL
- solubility [1, 5]: < 5 mg/mL
- solubility [1, 6]: < 10 mg/mL
- solubility [1, 7]: < 20 mg/mL
- solubility [1, 4]: < 40 mg/mL

SMILES: CCCCCCCCCCC(=O)O [Undecanoic Acid]
- solubility [1, 3]: > 40 mg/mL
- solubility [1, 4]: > 40 mg/mL

SMILES: CCCCC/C=C\C/C=C\CCCCCCCC(=O)O [Linoleic Acid (18:2), Linoleic Acid]
- solubility ([1]; 4 °C): > 40 mg/mL
- solubility ([1]; 60 °C): > 40 mg/mL

SMILES: CCCCCCCCCCCC(=O)O [Lauric acid (12:0), Lauric acid]
- solubility ([1]; 4 °C): < 40 mg/mL
- solubility ([1]; 60 °C): > 40 mg/mL

SMILES: CCCCCCCC/C=C\CCCCCCCCCCCCCC(=O)O [Nervonic Acid (24:1), Nervonic Acid]
- solubility [1, 3]: < 40 mg/mL
- solubility [1, 4]: > 40 mg/mL

SMILES: CCCCCCCCCCCCCC(=O)O [Myristic Acid (14:0), Myristic Acid]
- solubility [1, 3]: < 40 mg/mL
- solubility [1, 7]: > 20 mg/mL
- solubility [1, 4]: < 40 mg/mL

SMILES: CCCCCCCCCCCCCCCCCCCCCCC(=O)O [Tricosanoic Acid]
- solubility [1, 3]: < 40 mg/mL
- solubility [1, 5]: < 5 mg/mL
- solubility [1, 6]: < 10 mg/mL
- solubility [1, 7]: < 20 mg/mL
- solubility [1, 4]: < 40 mg/mL

SMILES: CCCCCCCCCCCCCCCCC(=O)O [Heptadecanoic Acid]
- solubility [1, 3]: < 40 mg/mL
- solubility [1, 5]: > 5 mg/mL
- solubility [1, 6]: < 10 mg/mL
- solubility [1, 7]: < 20 mg/mL
- solubility [1, 4]: < 40 mg/mL

Source: US9636410B2, “Cationic oil-in-water emulsions” (priority 2011, dated 2017)
